Assay results: ChEMBL document CHEMBL3112467, “In vitro phenotypic screening of 7-chloro-4-amino(oxy)quinoline derivatives as putative anti-Trypanosoma cruzi agents” (Bioorg Med Chem Lett, 2014)

Key:
[1] = Selectivity index, ratio of LC50 for mouse NCTC-929 cells to IC50 for epimastigote stage of Trypanosoma cruzi CL Brener; format: toxicity, cell-based; details: read-out: Ratio LC50/IC50
[2] = Cytotoxicity against mouse NCTC-929 cells after 48 hrs by resazurin staining-based fluorescence assay; format: cell-based; details: read-out: LC50
Trypanosoma cruzi [3] = assay: Antimicrobial activity against epimastigote stage of Trypanosoma cruzi CL Brener assessed as growth inhibition after 72 hrs by beta-galactosidase reporter gene assay; format: functional, organism-based
Trypanosoma cruzi [4] = assay: Antimicrobial activity against epimastigote stage of Trypanosoma cruzi CL Brener assessed as growth inhibition at […] after 72 hrs by beta-galactosidase reporter gene assay; format: functional; details: read-out: GI
[5] = Cytotoxicity against mouse NCTC-929 cells at […] after 48 hrs by resazurin staining-based fluorescence assay; format: cell-based; details: read-out: INH
Trypanosoma cruzi [6] = assay: Antimicrobial activity against amastigote stage of Trypanosoma cruzi CL Brener infected in mouse NCTC-929 cells assessed as growth inhibition at 0.5 uM after 7 days by beta-galactosidase reporter gene assay; format: functional; details: NCTC-929, 168 h, read-out: GI
Trypanosoma cruzi [7] = assay: Antimicrobial activity against amastigote stage of Trypanosoma cruzi CL Brener infected in mouse NCTC-929 cells assessed as growth inhibition at 1 uM after 7 days by beta-galactosidase reporter gene assay; format: functional; details: NCTC-929, 168 h, read-out: GI
Trypanosoma cruzi [8] = assay: Antimicrobial activity against amastigote stage of Trypanosoma cruzi CL Brener infected in mouse NCTC-929 cells assessed as growth inhibition at 2 uM after 7 days by beta-galactosidase reporter gene assay; format: functional; details: NCTC-929, 168 h, read-out: GI
Trypanosoma cruzi [9] = assay: Antimicrobial activity against amastigote stage of Trypanosoma cruzi CL Brener infected in mouse NCTC-929 cells assessed as growth inhibition at 4 uM after 7 days by beta-galactosidase reporter gene assay; format: functional; details: NCTC-929, 168 h, read-out: GI
Trypanosoma cruzi [10] = assay: Antimicrobial activity against amastigote stage of Trypanosoma cruzi CL Brener infected in mouse NCTC-929 cells assessed as growth inhibition at 8 uM after 7 days by beta-galactosidase reporter gene assay; format: functional; details: NCTC-929, 168 h, read-out: GI
Trypanosoma cruzi [11] = assay: Antimicrobial activity against amastigote stage of Trypanosoma cruzi CL Brener infected in mouse NCTC-929 cells assessed as growth inhibition at 16 uM after 7 days by beta-galactosidase reporter gene assay; format: functional; details: NCTC-929, 168 h, read-out: GI
Trypanosoma cruzi [12] = assay: Antimicrobial activity against amastigote stage of Trypanosoma cruzi CL Brener infected in mouse NCTC-929 cells assessed as growth inhibition at 32 uM after 7 days by beta-galactosidase reporter gene assay; format: functional; details: NCTC-929, 168 h, read-out: GI
in vitro = details: mouse, NCTC-929 cells
Description: Selectivity index, ratio of LC50 for mouse NCTC-929 cells to IC50 for amastigote stage of Trypanosoma cruzi CL Brener infected in mouse NCTC-929 cells

Trypanosoma cruzi [13] = assay: Antimicrobial activity against amastigote stage of Trypanosoma cruzi CL Brener infected in mouse NCTC-929 cells assessed as growth inhibition after 7 days by beta-galactosidase reporter gene assay; format: functional, organism-based; details: NCTC-929, 168 h

Row | SMILES | selectivity ratio [1] | CC50 at 48 h [2] | IC50 (Trypanosoma cruzi [3]) | inhibition of growth at […] (Trypanosoma cruzi [4]) | cytotoxicity at 48 h, […] [5] | inhibition of growth at 0.5 µM (Trypanosoma cruzi [6]) | inhibition of growth at 1 µM (Trypanosoma cruzi [7]) | inhibition of growth at 2 µM (Trypanosoma cruzi [8]) | inhibition of growth at 4 µM (Trypanosoma cruzi [9]) | inhibition of growth at 8 µM (Trypanosoma cruzi [10]) | inhibition of growth at 16 µM (Trypanosoma cruzi [11]) | inhibition of growth at 32 µM (Trypanosoma cruzi [12]) | selectivity ratio (in vitro) | IC50 (Trypanosoma cruzi [13])
1 | O=C1CSC(c2ccc3c(c2)OCO3)N1CCNc1ccnc2cc(Cl)ccc12 (stereo unspecified) | 2.85 | 19.5 µM | 6.84 µM | 84.3% |  |  |  |  |  |  |  |  |  | 
2 | Clc1ccc2c(NCc3ccccc3)ccnc2c1 | 3.71 | 2.28 µM | 6.55 µM | 95.1% | 71.4% |  |  |  |  |  |  |  |  | 
3 | O=C(Cn1ccnc1[N+](=O)[O-])NCc1ccccc1 [BENZNIDAZOLE] | > 9.44 | > 256 µM |  | 82% | 17.4% | 41.6% | 55.6% | 64.4% | 74.7% | 96.6% | 100% | 100% | > 320 | 
4 | CC1CS(=O)(=O)CCN1/N=C/c1ccc([N+](=O)[O-])o1 (stereo unspecified) [NIFURTIMOX] |  |  |  | 100% | 26.8% | 96.5% | 100% | 100% | 100% | 100% | 100% | 100% |  | < 0.5 µM
